Test results: US4333930A, “Orthoarylideneaminophenethylamines and pharmaceutical compositions” (priority 1980, dated 1982)
Read-outs that look alike come from different tables or passages of the source.

How the values were obtained:
[1] = system: number of escapes the animal made in 5 minutes; assay: Escape test, Table 3; assay type: in vivo, mouse; details: 5 min, read-out: % of activity (variation of the number of escapes)
From the text: The products of the invention were always administered orally in 6% gum base.
The notation NS signifies that the difference between the results noted for the product and the results noted for the excipient alone is not significant at the threshold 0.05 according to the Student t Test.

[2] = system: number of displacements of the animal; assay: Four plates test (anxiolytic activity), Table 5; assay type: in vivo; details: oral, mouse
From the text: (§1) The psychotropic profile of the present invention products has been characterized with the animals in numerous tests some of whose results are shown hereinafter. The products of the invention were always administered orally in 6% gum base.
A certain number of products manifest an anxiolytic activity evidenced in the test with the four plates with the mouse (Table 5).
% of increase in the number of displacements of the
animal as a function of the dose expressed in mg/kg

phenylbenzoquinone (PBQ) = assay: Analgesic activity using phenylbenzoquinone (PBQ) as noxious agent, Table 2; assay type: in vivo, male Swiss mouse; details: Mus musculus; for inhibition in vivo at 100 mg/kg: read-out: % of analgesic activity, 100 mg/kg, male Swiss mouse, PBQ; for inhibition in vivo at 200 mg/kg: read-out: % of analgesic activity, 200 mg/kg, male Swiss mouse, PBQ
Method: The analgesic activity was determined with the male Swiss mouse using phenylbenzoquinone (PBQ) (a variation of the method of Siegmund et al, Proc. Soc. Exp. Med., […], 95, 729-31) as the noxious agent. Twenty-eightminutes after having administered the test products in a suspension in a 6% gum base, the PBQ solution was injected. The mice were then observed ca. 5 mn. for the next five minutes.
% of analgesic activity as a function of
the dose expressed in mg/kg

[3] = system: salivation induced by pilocarpine; assay: Inhibition of salivation induced by pilocarpine (anticholinergic activity), Table 9; assay type: in vivo; details: oral
From the text: as §1
Certain products manifest an anticholinergic activity evidenced in the inhibition test of salivation induced by pilocarpine (Table 9).
% of inhibition of salivation induced by
pilocarpine as a function of the dose
(§2) administered expressed in mg/kg

[4] = system: trembling induced by oxotremorine; assay: Antagonism of trembling induced by oxotremorine, Table 7; assay type: in vivo; details: po, read-out: % of inhibition of trembling induced by oxotremorine
From the text: as §1
(§3) Certain tests made it possible to show antidepressive activities. These are tests of antagonism to the effects of reserpine, oxotremorine (according to Everett G. M. et al, Science, 1956, 124, 79 and Levy J. et al, Therapie 1965, 20, 265) and to despair (according to Porsolt P. D. et al, Eur. J. Pharmacol., 1978, 47, 379-91).
% of inhibition of trembling induced by
oxotremorine as a function of the dose
as §2

Swiss mice = assay: Oral toxicity (mortality) in the mouse, Table 1; assay type: in vivo; details: 1000 mg/kg, 14 days, 20160 min
Method: (§4) The mortality percentages caused by the products of the present invention administered orally to Swiss mice are shown in Table 1. The animals, free of specific pathological organism were housed in an air conditioned room from 24 to 48 hours before the start of the experiments. They were divided up into lots of 5 males and 5 females. With the animals unfed for 24 hours, the substances were administered intragastrically in a base of 6% gum arabic in a volume equal to 0.1 ml for 10 g of animal weight. The mortality was recorded at 14 days.
(§5) % of mortality as a function of the dose

[5] = Oral toxicity (mortality) in the mouse, Table 1; assay type: in vivo; details: mouse, in vivo, po, Swiss mice, 14 days
Method: as §4, §5

despair = assay: Test of despair (Porsolt), Table 8; assay type: in vivo; details: oral
From the text: as §1, §3
Test of despair: % of antagonism as a function
of the dose administered orally and expressed

catalepsy = assay: Catalepsy; assay type: in vivo; details: 400 and 600 mg/kg
[6] = system: stereotype induced by apomorphine; assay: Antagonism of the stereotype induced by apomorphine, Table 4; assay type: in vivo
From the text: as §1
% of activity vis-a-vis the stereotype
induced by apomorphine as a function of the
administered dose expressed in mg/kg

[7] = system: ptosis induced by reserpine; assay: Antagonism of ptosis induced by reserpine, Table 6; assay type: in vivo; details: po, read-out: % of inhibition of ptosis induced by reserpine
From the text: as §1, §3
% of inhibition of ptosis induced by reserpine
as a function of the dose administered orally

Q: For `CN(C)CCc1cc2c(cc1N=Cc1cccnc1)OCO2` [COR 01 170, 6-dimethylaminoethyl N-(pyridylidene-3)-1,3-benzodioxole-5-ylamine], which change in vivo at 100 mg/kg ([1]; Mus musculus, po) is on record?
A: -32%

Q: What about the change in vivo at 200 mg/kg ([1]; Mus musculus, po) of the same compound?
A: -59%

Q: And the “% of increase in the number of displacements of the animal” value (“% of increase” for short) ([2]; 25 mg/kg)?
A: +18%

Q: And the “% of increase” value ([2]; 40 mg/kg)?
A: +57%

Q: What about the “% of increase” value ([2]; 50 mg/kg) of the same compound?
A: +36%

Q: And the “% of increase” value ([2]; 60 mg/kg)?
A: +69%

Q: And the “% of increase” value ([2]; 75 mg/kg)?
A: +72%

Q: What about the inhibition in vivo at 100 mg/kg (phenylbenzoquinone (PBQ)) of the same compound?
A: 30%

Q: What about the inhibition in vivo at 200 mg/kg (phenylbenzoquinone (PBQ)) of the same compound?
A: 39%

Q: And the “% of inhibition of salivation induced by pilocarpine” value (from here on “% of inhibition … by pilocarpine”) ([3]; 100 mg/kg)?
A: -18%

Q: And the “% of inhibition … by pilocarpine” value ([3]; 200 mg/kg)?
A: -57%

Q: What about the change in vivo at 50 mg/kg [4] of the same compound?
A: -40%

Q: And the change in vivo at 100 mg/kg [4]?
A: -50%

Q: What about the change in vivo at 200 mg/kg [4] of the same compound?
A: -78%

Q: What about the “% of mortality” value (Swiss mice) of the same compound?
A: 0%

Q: And the mortality at 336 h ([5]; 1500 mg/kg)?
A: 100%

Q: What about the “Test of despair: % of antagonism” value (despair; 50 mg/kg) of the same compound?
A: -39%

Q: What about the “Test of despair: % of antagonism” value (despair; 100 mg/kg) of the same compound?
A: -39%

Q: What about the “Test of despair: % of antagonism” value (despair; 200 mg/kg) of the same compound?
A: -33%

Q: Which catalepsy (catalepsy) does the source give for `CN(C)CCc1cc2c(cc1N=CC=Cc1ccccc1)OCO2` [COR 01 176] here?
A: slight catalepsy

Q: And the change in vivo at 0.5 mg/kg ([1]; Mus musculus, po)?
A: -29%

Q: What about the change in vivo at 1 mg/kg ([1]; Mus musculus, po) of the same compound?
A: -40%

Q: And the change in vivo at 3 mg/kg ([1]; Mus musculus, po)?
A: -39%

Q: What about the change in vivo at 5 mg/kg ([1]; Mus musculus, po) of the same compound?
A: -33%

Q: What about the change in vivo at 25 mg/kg ([1]; Mus musculus, po) of the same compound?
A: -32%

Q: What about the change in vivo at 50 mg/kg ([1]; Mus musculus, po) of the same compound?
A: -37%

Q: What about the change in vivo at 100 mg/kg ([1]; Mus musculus, po) of the same compound?
A: -33%

Q: What about the change in vivo at 200 mg/kg ([1]; Mus musculus, po) of the same compound?
A: -43%

Q: What about the “% of increase” value ([2]; 3 mg/kg) of the same compound?
A: +101%

Q: What about the “% of increase” value ([2]; 5 mg/kg) of the same compound?
A: +117%

Q: And the “% of increase” value ([2]; 10 mg/kg)?
A: +72%

Q: What about the “% of increase” value ([2]; 20 mg/kg) of the same compound?
A: +72%

Q: And the “% of increase” value ([2]; 25 mg/kg)?
A: +66%

Q: And the inhibition in vivo at 100 mg/kg (phenylbenzoquinone (PBQ))?
A: 23%

Q: What about the inhibition in vivo at 200 mg/kg (phenylbenzoquinone (PBQ)) of the same compound?
A: 39%

Q: What about the change in vivo at 50 mg/kg [4] of the same compound?
A: -40%

Q: And the change in vivo at 100 mg/kg [4]?
A: -50%

Q: What about the change in vivo at 200 mg/kg [4] of the same compound?
A: -20%

Q: And the mortality at 336 h ([5]; 1000 mg/kg)?
A: 0%

Q: And the “% of activity vis-a-vis the stereotype induced by apomorphine” value ([6]; 200 mg/kg, oral)?
A: -64%

Q: What about the “antagonism vis-a-vis the stereotype with apomorphine” value ([6]; in words) of the same compound?
A: manifest an antagonism

Q: With `CN(C)CCc1ccccc1N=Cc1cccnc1` [COR 01 184] as the compound, how does the change in vivo at 5 mg/kg ([1]; 5 mg/kg, oral, mouse, 5 minutes) read?
A: -34%

Q: What about the change in vivo at 10 mg/kg ([1]; 10 mg/kg, oral, mouse, 5 minutes) of the same compound?
A: -26%

Q: What about the change in vivo at 25 mg/kg ([1]; 25 mg/kg, oral, mouse, 5 minutes) of the same compound?
A: -23%

Q: And the change in vivo at 50 mg/kg ([1]; 50 mg/kg, oral, mouse, 5 minutes)?
A: -34%

Q: And the change in vivo at 100 mg/kg ([1]; 100 mg/kg, oral, mouse, 5 minutes)?
A: -47%

Q: What about the change in vivo at 200 mg/kg ([1]; 200 mg/kg, oral, mouse, 5 minutes) of the same compound?
A: -46%

Q: What about the “% of increase” value ([2]; 1.5 mg/kg) of the same compound?
A: +89%

Q: And the “% of increase” value ([2]; 3 mg/kg)?
A: +73%

Q: What about the “% of increase” value ([2]; 5 mg/kg) of the same compound?
A: +56%

Q: What about the “% of increase” value ([2]; 10 mg/kg) of the same compound?
A: +61%

Q: And the inhibition in vivo at 50 mg/kg (phenylbenzoquinone (PBQ); read-out: % of analgesic activity, 50 mg/kg, male Swiss mouse, PBQ)?
A: 34%

Q: What about the inhibition in vivo at 100 mg/kg (phenylbenzoquinone (PBQ)) of the same compound?
A: 44%

Q: What about the inhibition in vivo at 200 mg/kg (phenylbenzoquinone (PBQ)) of the same compound?
A: 55%

Q: And the change in vivo at 50 mg/kg [7]?
A: -13%

Q: And the change in vivo at 100 mg/kg [7]?
A: -39%

Q: What about the change in vivo at 200 mg/kg [7] of the same compound?
A: -34%

Q: And the “% of inhibition … by pilocarpine” value ([3]; 200 mg/kg)?
A: -23%

Q: And the change in vivo at 25 mg/kg [4]?
A: -20%

Q: And the change in vivo at 50 mg/kg [4]?
A: 0%

Q: What about the change in vivo at 100 mg/kg [4] of the same compound?
A: -22%

Q: And the change in vivo at 200 mg/kg [4]?
A: -17%

Q: And the mortality at 336 h ([5]; 1500 mg/kg)?
A: 0%

Q: What about the mortality at 336 h ([5]; 2000 mg/kg) of the same compound?
A: 30%

Q: And the “Test of despair: % of antagonism” value (despair; 100 mg/kg)?
A: -20%

Q: And the “Test of despair: % of antagonism” value (despair; 200 mg/kg)?
A: -18%
